Consider 33 compounds from ChEMBL document CHEMBL1132533, “Synthesis and evaluation of hydroxyproline-derived isoprenyltransferase inhibitors” (Bioorg Med Chem Lett, 1999).

pIC50: −log10 of the molar value.

The target in experiment [1] is Protein farnesyltransferase (Bos taurus, UniProt P29702+P49355). Kind of experiment: Inhibitory concentration was evaluated against Farnesyltransferase in the farnesylation of H-ras protein. Type of experiment: protein-complex assay.
Experiment [2] has as its target Geranylgeranyl transferase type I (Bos taurus, UniProt P29702+Q5EAD5). Kind of experiment: In vitro inhibitory activity against Geranylgeranyl transferase in the geranylgeranylation of H-ras-CAIL protein. Type of experiment: protein-complex assay.
The nature of experiment [3]: In vitro inhibitory activity against Geranylgeranyl transferase in the geranylgeranylation of Rap1A protein protein in NIH 3T3 cells transformed with activated H-ras. The class given is cell-based, Mus musculus. To be noted: nih3t3.
Experiment [4] has as its target Protein farnesyltransferase (Mus musculus, UniProt Q61239+Q8K2I1). Kind of experiment: Inhibitory concentration against Farnesyltransferase for Farnesylation of H-ras protein InNIH 3T3 cells transformed with activated H-ras. Type of experiment: cell-based, NIH3T3.

For the compound `CSCC[C@@H](NC(=O)[C@H]1C[C@H](Oc2ccccc2)CN1C/C=C/[C@@H](N)CS)C(=O)O`, the values for the pIC50 in experiment [1] and in experiment [2] were 5.48 and 4.96, respectively.

For the compound `COC(=O)[C@@H](CCSC)NC(=O)[C@@H]1C[C@H](Oc2ccccc2)CN1C/C=C/[C@@H](N)CS`, the pIC50 in experiment [3] is 4.66; in experiment [4] it was 5.28.

As to `COC(=O)[C@H](CCSC)NC(=O)[C@@H]1C[C@H](Oc2ccc(C(F)(F)F)cc2)CN1C/C=C/[C@@H](N)CS`, the pIC50 in experiment [3] and in experiment [4] was under 4.30 in each case.

For `COC(=O)[C@H](CCSC)NC(=O)[C@@H]1C[C@H](Oc2ccc(C(C)C)cc2)CN1C/C=C/[C@@H](N)CS`, the figures for the pIC50 in experiment [3] and in experiment [4] were 6.41 and 5.52, respectively.

Regarding `COC(=O)[C@H](CCSC)NC(=O)[C@@H]1C[C@H](Oc2ccccc2)CN1CCCC[C@@H](N)CS`, the pIC50 is under 4.30 in experiment [3] and 6.46 in experiment [4].

Consider `COC(=O)[C@H](CCSC)NC(=O)[C@@H]1C[C@H](Oc2ccccc2)CN1C(=O)CCC[C@@H](N)CS`, for which the pIC50 was under 4.30 in experiment [3] and 5.70 in experiment [4].

Consider `CSCC[C@H](NC(=O)[C@@H]1C[C@H](Oc2ccc(C(F)(F)F)cc2)CN1C/C=C/[C@@H](N)CS)C(=O)O`, for which the pIC50 in experiment [1] and in experiment [2] was 6.96 each time.

With `CSCC[C@H](NC(=O)[C@@H]1C[C@H](Oc2ccccc2)CN1CCCC[C@@H](N)CS)C(=O)O`, the pIC50 is 7.70 in experiment [1] and 5.48 in experiment [2].

As for `COC(=O)[C@H](CCSC)NC(=O)[C@@H]1C[C@H](Oc2ccccc2)CN1C[C@H](/C=C/[C@@H](N)CS)C(C)C`, the pIC50 in experiment [3] was under 4.60; in experiment [4] it was 7.40.

Regarding `COC(=O)[C@H](CCSC)NC(=O)[C@@H]1C[C@H](Oc2ccc(OC)c(OC)c2)CN1C/C=C/[C@@H](N)CS`, the negative logarithm of the IC50 (pIC50) in experiment [3] and in experiment [4] was under 4.30 each time.

In the case of `CCCCc1ccc(O[C@H]2C[C@@H](C(=O)N[C@@H](CCSC)C(=O)OC)N(C/C=C/[C@@H](N)CS)C2)cc1`, the figures for the negative-log IC50 (pIC50) in experiment [3] and in experiment [4] were 5.51 and 5.49, respectively.

As for `CSCC[C@H](NC(=O)[C@@H]1C[C@H](Oc2ccccc2)CN1C(=O)[C@H](/C=C/[C@@H](N)CS)C(C)C)C(=O)O`, the pIC50 in experiment [1] is 7.74; in experiment [2] it was 7.96.

In the case of `CCCc1ccccc1O[C@H]1C[C@@H](C(=O)N[C@@H](CCSC)C(=O)O)N(C/C=C/[C@@H](N)CS)C1`, the pIC50 in experiment [1] is 6.68; in experiment [2] it was 6.77.

Regarding `COC(=O)[C@H](CCSC)NC(=O)[C@@H]1C[C@H](Oc2ccccc2)CN1C(=O)[C@H](/C=C/[C@@H](N)CS)C(C)C`, the values for the pIC50 in experiment [3] and in experiment [4] were under 4.30 and 6.08, respectively.

As for `CSCC[C@H](NC(=O)[C@@H]1C[C@H](Oc2ccccc2)CN1CC/C=C/[C@@H](N)CS)C(=O)O`, the pIC50 was 7.70 in experiment [1] and 6.24 in experiment [2].

For `CCCCc1ccc(O[C@H]2C[C@@H](C(=O)N[C@@H](CCSC)C(=O)O)N(C/C=C/[C@@H](N)CS)C2)cc1`, the pIC50 was 7.06 in experiment [1] and 6.74 in experiment [2].

`CCCc1ccccc1O[C@H]1C[C@H](C(=O)N[C@H](CCSC)C(=O)OC)N(C/C=C/[C@@H](N)CS)C1`: the pIC50 in experiment [3] and in experiment [4] was under 5.00 throughout.

With `COC(=O)[C@H](CCSC)NC(=O)[C@@H]1C[C@H](Oc2cccc3ccccc23)CN1C/C=C/C(N)CS` (some centres not stated), the values for the pIC50 in experiment [3] and in experiment [4] were under 4.30 and 4.65, respectively.

Consider `COC(=O)[C@H](CCSC)NC(=O)[C@@H]1C[C@H](Oc2cccc3c2CCCC3)CN1C/C=C/C(N)CS` (some centres not stated), for which the figures for the pIC50 in experiment [3] and in experiment [4] were 5.51 and under 5.00, respectively.

For the compound `CSCC[C@H](NC(=O)[C@@H]1C[C@H](Oc2cccc3ccccc23)CN1C/C=C/C(N)CS)C(=O)O` (some centres not stated), the pIC50 was 7.00 in experiment [1] and 6.70 in experiment [2].

In experiment [4], `COC(=O)[C@H](CCSC)NC(=O)[C@H]1C[C@H](Oc2ccccc2)CN1C/C=C/[C@@H](N)CS` showed a pIC50 of under 4.30.

Consider `COC(=O)[C@H](CCSC)NC(=O)[C@@H]1C[C@@H](Oc2ccccc2)CN1C/C=C/[C@@H](N)CS`, for which the pIC50 in experiment [3] and in experiment [4] was under 4.30 in each case.

Take `CSCC[C@H](NC(=O)[C@@H]1C[C@H](Oc2ccc(-c3ccccc3)cc2)CN1C/C=C/[C@@H](N)CS)C(=O)O`: the pIC50 in experiment [1] is 7.46; in experiment [2] it was 6.60.

Turning to `COC(=O)[C@H](CCSC)NC(=O)[C@@H]1C[C@H](Oc2ccccc2)CN1CC/C=C/[C@@H](N)CS`, the pIC50 in experiment [3] was under 4.30; in experiment [4] it was 6.31.

With `CSCC[C@H](NC(=O)[C@H](/C=C\[C@@H](/C=C/[C@@H](N)CS)C(C)C)Cc1ccccc1)C(=O)O`, the negative-log IC50 (pIC50) in experiment [3] was under 4.00; in experiment [1], 7.59; in experiment [4], 6.43; in experiment [2], 9.00.

As to `CSCC[C@H](NC(=O)[C@@H]1C[C@H](Oc2cccc3c2CCCC3)CN1C/C=C/[C@@H](N)CS)C(=O)O`, the pIC50 in experiment [1] is 7.33; in experiment [2], 7.05.

Take `CSCC[C@H](NC(=O)[C@@H]1C[C@@H](Oc2ccccc2)CN1C/C=C/[C@@H](N)CS)C(=O)O`: the pIC50 in experiment [1] is 5.40; in experiment [2], 5.10.

Regarding `CSCC[C@H](NC(=O)[C@@H]1C[C@H](Oc2ccccc2)CN1C(=O)CCC[C@@H](N)CS)C(=O)O`, the figures for the pIC50 in experiment [1] and in experiment [2] were 8.70 and 7.00, respectively.

As for `COC(=O)[C@H](CCSC)NC(=O)[C@@H]1C[C@H](Oc2ccc(-c3ccccc3)cc2)CN1C/C=C/[C@@H](N)CS`, the values for the negative-log IC50 (pIC50) in experiment [3] and in experiment [4] were 5.49 and 5.48, respectively.

Turning to `CSCC[C@H](NC(=O)[C@@H]1C[C@H](Oc2ccc(C(C)C)cc2)CN1C/C=C/[C@@H](N)CS)C(=O)O`, the negative-log IC50 (pIC50) was 7.09 in experiment [1] and 6.68 in experiment [2].

For the compound `CSCC[C@H](NC(=O)[C@@H]1C[C@H](Oc2ccccc2)CN1C[C@H](/C=C/[C@@H](N)CS)C(C)C)C(=O)O`, the results for the pIC50 in experiment [1] and in experiment [2] were 7.77 and 6.82, respectively.

On to `CSCCC(NC(=O)[C@@H]1C[C@H](Oc2ccccc2)CN1C/C=C/[C@@H](N)CS)C(=O)O` (single isomer, unassigned), for which the pIC50 in experiment [1] was 7.24; in experiment [2], 7.28.

On to `COc1ccc(O[C@H]2CC(C(=O)NC(CCSC)C(=O)O)N(C/C=C/[C@@H](N)CS)C2)cc1OC` (single isomer, unassigned), for which the figures for the negative logarithm of the IC50 (pIC50) in experiment [1] and in experiment [2] were 6.35 and 4.17, respectively.
